US9738660B2, “Selective inhibitors for protein kinases and pharmaceutical composition and use thereof” (National Chiao Tung University, priority 2014, dated 2017)
Where two headings read alike, the source gives them in different places.

Legend:
Test in all cases: Kinase Profiler, residual kinase activity
Type in all cases: biochemical
PRKACA = biological target: T1, PRKACA (Homo sapiens, UniProt P17612); conditions: read-out: percentage of the remaining kinase activity
T1 construct: purchased Research Biology Corp. (http://www.reactionbiology.com)
Excerpt: (§1) Kinase Profiler services provided by […]. (http://www.reactionbiology.com) were used to analyze the data of the 9 type-S protein kinase inhibitors against the 40 types of protein kinases.

AURKA = biological target: T2, AURKA (Homo sapiens, UniProt O14965); conditions: read-out: percentage of the remaining kinase activity
T2 sequence (O14965 1-403): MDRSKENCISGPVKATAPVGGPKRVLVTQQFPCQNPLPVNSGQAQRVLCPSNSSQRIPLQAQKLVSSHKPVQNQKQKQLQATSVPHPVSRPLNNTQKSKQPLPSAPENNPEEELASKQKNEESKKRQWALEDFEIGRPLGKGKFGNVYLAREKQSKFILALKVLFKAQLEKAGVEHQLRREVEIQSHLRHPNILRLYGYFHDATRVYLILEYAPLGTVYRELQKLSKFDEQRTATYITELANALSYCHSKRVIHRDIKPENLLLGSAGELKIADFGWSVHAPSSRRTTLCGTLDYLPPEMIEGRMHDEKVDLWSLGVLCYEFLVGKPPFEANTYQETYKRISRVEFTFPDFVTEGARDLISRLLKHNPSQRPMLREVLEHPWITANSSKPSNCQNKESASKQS
Excerpt: as §1

DAPK1 = DAPK1 (Homo sapiens, UniProt P53355); conditions: read-out: percentage of the remaining kinase activity
Excerpt: as §1

AKT1 = AKT1 (Homo sapiens, UniProt P31749); conditions: read-out: percentage of the remaining kinase activity
Excerpt: as §1

CAMK2D = CAMK2D (Homo sapiens, UniProt Q13557); conditions: for remaining activity at 0.5 µM: read-out: percentage of the remaining kinase activity
Excerpt: as §1

PAK4 = PAK4 (Homo sapiens, UniProt O96013); conditions: read-out: percentage of the remaining kinase activity
Excerpt: as §1

STK11 = biological target: T3, STK11 (Homo sapiens, UniProt Q15831); conditions: read-out: percentage of the remaining kinase activity
T3 sequence (Q15831 1-433): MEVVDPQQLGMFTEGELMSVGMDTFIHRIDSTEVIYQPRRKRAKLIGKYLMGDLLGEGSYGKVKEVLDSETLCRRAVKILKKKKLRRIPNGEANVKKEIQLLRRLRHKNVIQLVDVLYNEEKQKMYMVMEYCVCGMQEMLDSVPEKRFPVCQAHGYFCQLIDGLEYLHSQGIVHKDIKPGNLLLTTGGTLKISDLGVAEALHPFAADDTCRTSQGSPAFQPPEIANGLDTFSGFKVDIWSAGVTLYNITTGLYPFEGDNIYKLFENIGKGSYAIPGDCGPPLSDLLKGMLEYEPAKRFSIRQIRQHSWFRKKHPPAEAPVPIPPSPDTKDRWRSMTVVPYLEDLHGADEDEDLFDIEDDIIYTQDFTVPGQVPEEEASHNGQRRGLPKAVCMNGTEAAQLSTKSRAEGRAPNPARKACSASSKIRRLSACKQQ
T3 sequence (Q7RTN6 1-431 partner): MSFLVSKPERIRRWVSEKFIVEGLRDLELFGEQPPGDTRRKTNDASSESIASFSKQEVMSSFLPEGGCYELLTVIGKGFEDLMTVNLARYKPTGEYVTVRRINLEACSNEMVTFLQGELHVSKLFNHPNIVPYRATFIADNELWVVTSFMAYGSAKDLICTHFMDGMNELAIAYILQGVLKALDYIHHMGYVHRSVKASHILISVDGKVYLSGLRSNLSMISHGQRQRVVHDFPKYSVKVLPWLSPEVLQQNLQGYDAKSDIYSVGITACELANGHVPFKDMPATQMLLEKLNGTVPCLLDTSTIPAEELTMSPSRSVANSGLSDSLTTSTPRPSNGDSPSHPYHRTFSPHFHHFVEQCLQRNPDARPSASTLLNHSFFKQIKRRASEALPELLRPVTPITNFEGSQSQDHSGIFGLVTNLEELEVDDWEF
T3 sequence (Q9Y376 1-341 partner): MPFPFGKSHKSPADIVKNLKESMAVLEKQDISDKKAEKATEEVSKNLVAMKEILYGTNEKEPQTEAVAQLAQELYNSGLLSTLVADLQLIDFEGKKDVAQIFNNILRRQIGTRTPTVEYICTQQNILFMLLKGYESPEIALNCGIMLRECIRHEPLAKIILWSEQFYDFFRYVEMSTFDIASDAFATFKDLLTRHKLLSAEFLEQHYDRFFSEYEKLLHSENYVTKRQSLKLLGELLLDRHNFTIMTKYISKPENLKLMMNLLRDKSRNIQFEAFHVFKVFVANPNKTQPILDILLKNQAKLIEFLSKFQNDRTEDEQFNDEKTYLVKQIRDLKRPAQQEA
Excerpt: as §1

GSK3B = GSK3B (Homo sapiens, UniProt P49841); conditions: read-out: percentage of the remaining kinase activity
Excerpt: as §1

Chain of AKT1 (P31749 whole entry): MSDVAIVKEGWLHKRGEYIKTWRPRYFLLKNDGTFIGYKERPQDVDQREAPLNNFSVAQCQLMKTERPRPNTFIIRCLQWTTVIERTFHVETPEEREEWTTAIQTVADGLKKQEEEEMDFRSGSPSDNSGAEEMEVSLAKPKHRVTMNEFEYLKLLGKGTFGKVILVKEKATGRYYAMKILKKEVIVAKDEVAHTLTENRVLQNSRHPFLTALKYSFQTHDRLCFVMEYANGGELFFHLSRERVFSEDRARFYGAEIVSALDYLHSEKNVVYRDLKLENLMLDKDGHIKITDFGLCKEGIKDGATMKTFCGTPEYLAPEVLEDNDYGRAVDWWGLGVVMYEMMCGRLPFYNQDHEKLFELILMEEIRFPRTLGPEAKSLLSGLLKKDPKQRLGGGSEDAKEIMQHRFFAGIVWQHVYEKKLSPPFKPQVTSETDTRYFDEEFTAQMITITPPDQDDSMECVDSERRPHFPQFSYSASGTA
Chain of DAPK1 (P53355 whole entry): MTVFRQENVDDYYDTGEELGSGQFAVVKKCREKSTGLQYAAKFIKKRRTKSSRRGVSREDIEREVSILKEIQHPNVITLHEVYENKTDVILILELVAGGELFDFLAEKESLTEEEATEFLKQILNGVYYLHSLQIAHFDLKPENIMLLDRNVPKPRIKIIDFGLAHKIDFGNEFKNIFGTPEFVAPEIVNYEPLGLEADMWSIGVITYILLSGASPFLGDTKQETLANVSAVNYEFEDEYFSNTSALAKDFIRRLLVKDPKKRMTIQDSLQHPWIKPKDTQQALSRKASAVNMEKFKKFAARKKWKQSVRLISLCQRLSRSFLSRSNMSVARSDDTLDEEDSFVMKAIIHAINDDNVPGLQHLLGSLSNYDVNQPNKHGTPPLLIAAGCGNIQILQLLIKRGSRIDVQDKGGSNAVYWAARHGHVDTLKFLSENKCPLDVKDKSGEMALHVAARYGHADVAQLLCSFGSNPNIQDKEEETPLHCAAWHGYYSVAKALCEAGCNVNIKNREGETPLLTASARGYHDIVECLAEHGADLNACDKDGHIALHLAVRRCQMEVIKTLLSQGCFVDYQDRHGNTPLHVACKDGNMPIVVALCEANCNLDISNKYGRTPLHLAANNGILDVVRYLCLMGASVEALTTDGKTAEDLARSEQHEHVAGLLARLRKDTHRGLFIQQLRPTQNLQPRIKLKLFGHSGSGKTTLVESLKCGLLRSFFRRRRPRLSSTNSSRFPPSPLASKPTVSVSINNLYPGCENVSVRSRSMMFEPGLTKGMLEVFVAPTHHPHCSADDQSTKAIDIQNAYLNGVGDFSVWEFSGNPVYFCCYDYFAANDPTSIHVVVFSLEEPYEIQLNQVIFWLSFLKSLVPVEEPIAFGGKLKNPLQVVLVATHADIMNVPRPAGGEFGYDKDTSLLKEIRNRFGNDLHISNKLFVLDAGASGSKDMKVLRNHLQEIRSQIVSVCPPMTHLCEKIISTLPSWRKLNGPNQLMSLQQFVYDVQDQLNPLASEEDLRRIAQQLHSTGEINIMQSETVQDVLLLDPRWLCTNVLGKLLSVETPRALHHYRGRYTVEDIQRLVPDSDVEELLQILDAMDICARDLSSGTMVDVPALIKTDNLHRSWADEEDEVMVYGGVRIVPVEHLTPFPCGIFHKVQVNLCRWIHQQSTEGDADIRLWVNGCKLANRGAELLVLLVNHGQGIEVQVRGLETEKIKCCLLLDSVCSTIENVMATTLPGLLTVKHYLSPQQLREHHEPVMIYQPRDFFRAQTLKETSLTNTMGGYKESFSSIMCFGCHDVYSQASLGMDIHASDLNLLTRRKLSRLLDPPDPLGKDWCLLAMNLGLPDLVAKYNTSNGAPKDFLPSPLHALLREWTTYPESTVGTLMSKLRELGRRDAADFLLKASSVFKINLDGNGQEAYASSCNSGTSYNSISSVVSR
Chain of PAK4 (O96013 whole entry): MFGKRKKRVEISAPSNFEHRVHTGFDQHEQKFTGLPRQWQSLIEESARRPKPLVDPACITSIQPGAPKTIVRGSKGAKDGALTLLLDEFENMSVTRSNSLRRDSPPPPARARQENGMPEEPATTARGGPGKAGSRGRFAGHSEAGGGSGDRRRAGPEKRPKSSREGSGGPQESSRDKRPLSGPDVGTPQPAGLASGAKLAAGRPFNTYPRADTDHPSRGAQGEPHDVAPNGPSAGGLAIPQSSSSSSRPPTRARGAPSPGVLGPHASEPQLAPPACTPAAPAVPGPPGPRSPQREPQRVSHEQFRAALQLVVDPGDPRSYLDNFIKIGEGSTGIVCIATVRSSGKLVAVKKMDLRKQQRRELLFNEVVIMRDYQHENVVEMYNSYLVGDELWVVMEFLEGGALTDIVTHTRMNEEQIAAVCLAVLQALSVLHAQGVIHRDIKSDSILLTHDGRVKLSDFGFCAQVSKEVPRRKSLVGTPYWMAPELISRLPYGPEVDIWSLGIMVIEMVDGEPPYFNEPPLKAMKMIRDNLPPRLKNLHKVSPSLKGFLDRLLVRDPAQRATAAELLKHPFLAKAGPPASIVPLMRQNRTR
Chain of CAMK2D (Q13557 whole entry): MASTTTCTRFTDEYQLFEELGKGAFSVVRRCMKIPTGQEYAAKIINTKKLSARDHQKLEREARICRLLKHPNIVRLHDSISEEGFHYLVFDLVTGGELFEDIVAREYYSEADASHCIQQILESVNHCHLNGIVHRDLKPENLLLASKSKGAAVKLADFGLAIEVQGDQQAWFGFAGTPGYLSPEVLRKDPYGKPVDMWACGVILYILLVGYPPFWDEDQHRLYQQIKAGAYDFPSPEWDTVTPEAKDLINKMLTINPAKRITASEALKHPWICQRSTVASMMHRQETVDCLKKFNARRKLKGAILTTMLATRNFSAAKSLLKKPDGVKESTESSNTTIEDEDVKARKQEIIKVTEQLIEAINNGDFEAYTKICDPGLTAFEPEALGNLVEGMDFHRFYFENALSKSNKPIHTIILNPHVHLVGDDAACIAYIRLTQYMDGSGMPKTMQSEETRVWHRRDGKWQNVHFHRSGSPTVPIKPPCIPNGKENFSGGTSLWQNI
Chain of GSK3B (P49841 whole entry): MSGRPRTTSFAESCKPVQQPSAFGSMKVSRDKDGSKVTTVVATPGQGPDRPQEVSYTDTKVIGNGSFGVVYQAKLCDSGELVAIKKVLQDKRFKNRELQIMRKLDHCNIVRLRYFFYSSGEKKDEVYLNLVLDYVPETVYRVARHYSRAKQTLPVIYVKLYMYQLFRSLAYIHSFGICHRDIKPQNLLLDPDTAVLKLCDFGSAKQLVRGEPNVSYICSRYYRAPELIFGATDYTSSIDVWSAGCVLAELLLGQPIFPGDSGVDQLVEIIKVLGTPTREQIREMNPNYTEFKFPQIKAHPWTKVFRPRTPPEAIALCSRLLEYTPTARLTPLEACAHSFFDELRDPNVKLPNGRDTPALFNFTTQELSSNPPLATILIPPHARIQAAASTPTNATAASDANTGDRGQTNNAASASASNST

| SMILES | remaining activity at 0.5 µM (PRKACA; PRKACA, inhibitor at 500 nM) [%] | remaining activity at 0.5 µM (AURKA; AURKA, inhibitor at 500 nM) [%] | remaining activity at 0.5 µM (DAPK1; DAPK1, inhibitor at 500 nM) [%] | remaining activity at 0.5 µM (AKT1; AKT1, inhibitor at 500 nM) [%] | remaining activity at 0.5 µM (CAMK2D; CAMK2D, inhibitor at 500 nM) [%] | remaining activity at 0.5 µM (PAK4; PAK4, inhibitor at 500 nM) [%] | remaining activity at 0.5 µM (STK11; STK11, inhibitor at 500 nM) [%] | remaining activity at 0.5 µM (GSK3B; GSK3B, inhibitor at 500 nM) [%] | IC50 (CAMK2D; CAMK2D, inferred from test at 500 nM (FIG. 1)) [nM] | remaining activity at 0.5 µM (PRKACA) [%] | remaining activity at 0.5 µM (AURKA) [%] | remaining activity at 0.5 µM (DAPK1) [%] | remaining activity at 0.5 µM (AKT1) [%] | remaining activity at 0.5 µM (CAMK2D) [%] | remaining activity at 0.5 µM (PAK4) [%] | remaining activity at 0.5 µM (STK11) [%] | remaining activity at 0.5 µM (GSK3B) [%] |
| --- | --- | --- | --- | --- | --- | --- | --- | --- | --- | --- | --- | --- | --- | --- | --- | --- | --- |
| COC1C(N(C)C(=O)C(N)Cc2cn(C(=O)OC(C)(C)C)c3ccccc23)CC2OC1(C)n1c3ccccc3c3c4c(c5c6ccccc6n2c5c31)C(=O)NC4 (stereo not drawn) [Compound 2] | 81.1 | 86.2 | 107 | 97.6 | 16.1 | 110 | 106 | 94.2 | < 500 |  |  |  |  |  |  |  |  |
| COC1C(N(C)C(=O)C(N)CCC(=O)OC(C)(C)C)CC2OC1(C)n1c3ccccc3c3c4c(c5c6ccccc6n2c5c31)C(=O)NC4 (stereo not drawn) [Compound 6] | 40.8 | 5.3 | 101 | 67.5 | 12.7 | 80.8 | 104 | 79.7 |  |  |  |  |  |  |  |  |  |
| COC1C(N(C)C(=O)C(N)CCC(=O)O)CC2OC1(C)n1c3ccccc3c3c4c(c5c6ccccc6n2c5c31)C(=O)NC4 (stereo not drawn) [Compound 7] | 18.6 | 0.9 | 26.2 | 31.5 | 2.3 | 38.4 | 79.9 | 9.6 |  |  |  |  |  |  |  |  |  |
| COC1C(N(C)CCOc2cccc([N+](=O)[O-])c2)CC2OC1(C)n1c3ccccc3c3c4c(c5c6ccccc6n2c5c31)C(=O)NC4 (stereo not drawn) [Compound 8] |  |  |  |  |  |  |  |  |  | 26.4 | 12.1 | 89.8 | 52.3 | 0.3 | 99.9 | 101 | 51.8 |
| COC1C(N(C)Cc2ccc(-c3ccccc3)cc2)CC2OC1(C)n1c3ccccc3c3c4c(c5c6ccccc6n2c5c31)C(=O)NC4 (stereo not drawn) [Compound 9] | 24.6 | 11.2 | 116 | 46.9 | 1.1 | 91.8 | 91.9 | 46.6 |  |  |  |  |  |  |  |  |  |
| CN[C@@H]1C[C@H]2O[C@@](C)([C@@H]1OC)n1c3ccccc3c3c4c(c5c6ccccc6n2c5c31)C(=O)NC4 [STU, staurosporine, reference compound] |  |  |  |  |  |  |  |  |  |  | 0.2 | 1.9 | 3.8 | 0.4 |  |  |  |

Continued, in another order:

| remaining activity at 0.5 µM (PRKACA; PRKACA, inhibitor at 500 nM) [%] | remaining activity at 0.5 µM (AURKA; AURKA, inhibitor at 500 nM) [%] | remaining activity at 0.5 µM (DAPK1; DAPK1, inhibitor at 500 nM) [%] | remaining activity at 0.5 µM (AKT1; AKT1, inhibitor at 500 nM) [%] | remaining activity at 0.5 µM (CAMK2D; CAMK2D, inhibitor at 500 nM) [%] | remaining activity at 0.5 µM (PAK4; PAK4, inhibitor at 500 nM) [%] | remaining activity at 0.5 µM (STK11; STK11, inhibitor at 500 nM) [%] | remaining activity at 0.5 µM (GSK3B; GSK3B, inhibitor at 500 nM) [%] | IC50 (CAMK2D; CAMK2D, inferred from test at 500 nM (FIG. 1)) [nM] | SMILES | remaining activity at 0.5 µM (PRKACA) [%] | remaining activity at 0.5 µM (AURKA) [%] | remaining activity at 0.5 µM (DAPK1) [%] | remaining activity at 0.5 µM (AKT1) [%] | remaining activity at 0.5 µM (CAMK2D) [%] | remaining activity at 0.5 µM (PAK4) [%] | remaining activity at 0.5 µM (STK11) [%] | remaining activity at 0.5 µM (GSK3B) [%] |
| --- | --- | --- | --- | --- | --- | --- | --- | --- | --- | --- | --- | --- | --- | --- | --- | --- | --- |
| 13.9 | 2.1 | 26 | 19.6 | 2 | 40.2 | 88.7 | 17.9 |  | COC1C(N(C)C(=O)C(N)Cc2c[nH]cn2)CC2OC1(C)n1c3ccccc3c3c4c(c5c6ccccc6n2c5c31)C(=O)NC4 (stereo not drawn) [Compound 1] |  |  |  |  |  |  |  |  |
| 38.3 | 19.7 | 96.4 | 79.6 | 6.7 | 95.2 | 113 | 86.6 |  | COC1C(N(C)C(=O)C(N)Cc2ccc(OC(C)(C)C)cc2)CC2OC1(C)n1c3ccccc3c3c4c(c5c6ccccc6n2c5c31)C(=O)NC4 (stereo not drawn) [Compound 4] |  |  |  |  |  |  |  |  |
| 32.6 | 4.9 | 105 | 66.8 | 10.1 | 53.3 | 102 | 29.4 |  | COC1C(N(C)C(=O)C(N)Cc2ccc(O)cc2)CC2OC1(C)n1c3ccccc3c3c4c(c5c6ccccc6n2c5c31)C(=O)NC4 (stereo not drawn) [Compound 5] |  |  |  |  |  |  |  |  |
